Data set [1] in a line: Permeability across apical to basolateral side of MDCK cells. Particulars: dog, read-out: permeability. The class given is ADME, cell-based, Canis lupus familiaris.
A short description of data set [2]: Permeability across basolateral to apical side of MDCK cells. The following applies: dog. The class given is ADME, cell-based, Canis lupus familiaris.

Consider `CNc1nccc(N2CC[C@H](NC(=O)Nc3ccc(CN4CCN(C)CC4)c(C(F)(F)F)c3)C2)n1`, for which, in data set [1], the Papp A→B amounted to 4.1 ×10⁻⁶ cm/s. In addition, in data set [2], the Papp B→A is 4.5 ×10⁻⁶ cm/s.

Regarding `CNc1nccc(N2CC[C@H](NC(=O)Nc3ccc(C)c(Cl)c3)C2)n1`, in data set [1], the Papp A→B worked out at 3.9 ×10⁻⁶ cm/s. In addition, the basolateral-to-apical permeability (Papp B→A) in data set [2] worked out at 7 ×10⁻⁶ cm/s.

On to `CNc1nccc(N2CC[C@H](NC(=O)Nc3ccc(CN4CCOCC4)c(C(F)(F)F)c3)C2)n1`, for which the Papp A→B in data set [1] is 12.4 ×10⁻⁶ cm/s. The same compound had a Papp B→A in data set [2] of 12.2 ×10⁻⁶ cm/s.

As to `CNc1nccc(N2CC[C@H](NC(=O)Nc3ccc(Cl)c(C(F)(F)F)c3)C2)n1`, the Papp A→B in data set [1] was determined as 3.9 ×10⁻⁶ cm/s. The basolateral-to-apical permeability (Papp B→A) in data set [2] turned out to be 4 ×10⁻⁶ cm/s.

Turning to `CCN1CCN(Cc2ccc(NC(=O)N[C@H]3CCN(c4ccnc(NC)n4)C3)cc2C(F)(F)F)CC1`, in data set [1], the Papp A→B was found to be 0.3 ×10⁻⁶ cm/s. Besides, the basolateral-to-apical permeability (Papp B→A) in data set [2] came out at 4.2 ×10⁻⁶ cm/s.

One may read the Papp B→A as the apparent permeability from the basolateral to the apical side of a cell layer.
